SMILES strings stand for the structures. Changes are numbered by the printed parent chain.

Assay [1] deals with T1, mutant MGL (mut-MGLL 11-313 L179S L186S) (Homo sapiens, UniProt Q99685, L169S/L176S).
T1 construct: purified mutant MGL (mut-MGLL 11-313 L179S L186S)
T1 sequence (Q99685 1-303 L169S/L176S): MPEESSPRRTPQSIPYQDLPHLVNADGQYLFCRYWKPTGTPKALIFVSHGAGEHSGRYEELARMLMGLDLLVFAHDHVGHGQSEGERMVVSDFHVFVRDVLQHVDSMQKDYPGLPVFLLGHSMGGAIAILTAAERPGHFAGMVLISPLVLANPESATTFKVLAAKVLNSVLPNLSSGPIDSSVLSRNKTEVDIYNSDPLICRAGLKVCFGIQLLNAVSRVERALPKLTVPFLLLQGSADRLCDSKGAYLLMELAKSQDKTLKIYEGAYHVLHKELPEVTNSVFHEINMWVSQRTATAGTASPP
In words: MGL Enzyme Activity Assay, purified mutant MGL, 4MU-B substrate. Format: biochemical. Particulars: mutant MGL 5 nM, 4MU-B 10 μM, 37° C.; read-out: MGL mutant inh IC50. On the procedure: All rate-based assays were performed in black 384-well polypropylene PCR microplates (Abgene) in a total volume of 30 μL. Substrate 4-methylumbelliferyl butyrate (4MU-B; Sigma) and either purified mutant MGL (mut-MGLL 11-313 L179S L186S) or purified wild type MGL (wt-MGLL 6H-11-313) were diluted separately into 20 mM PIPES buffer (pH=7.0), containing 150 mM NaCl and 0.001% Tween 20. Compounds of Formula (I), including Formulas I(a), I(b), and I(c), were pre-dispensed (50 nL) into the assay plate using a Cartesian Hummingbird prior to adding 4MU-B (25 μL of 1.2× solution to a final concentration of 10 μM) followed by enzyme (5 μL of a 6× solution to a final concentration of 5 nM) to initiate the reaction. Final compound concentrations ranged from 17 to 0.0003 μM. The fluorescence change due to 4MU-B cleavage was monitored with excitation and emission wavelengths of 335 and 440 nm, respectively, and a bandwidth of 10 nm (Safire^2, Tecan) at 37° C. for 5 min.
(§1) The IC50 values for the following compounds were determined using Microsoft Office Excel from a fit of the equation to the concentration-response plot of the fractional activity as a function of inhibitor concentration.

In the next assay the target is T2, MGL (Rattus norvegicus, UniProt Q8R431).
T2 construct: one g rat brain was homogenized using a Polytron homogenizer; from tissue; host or cells: rat brain homogenate
T2 sequence (Q8R431 1-303): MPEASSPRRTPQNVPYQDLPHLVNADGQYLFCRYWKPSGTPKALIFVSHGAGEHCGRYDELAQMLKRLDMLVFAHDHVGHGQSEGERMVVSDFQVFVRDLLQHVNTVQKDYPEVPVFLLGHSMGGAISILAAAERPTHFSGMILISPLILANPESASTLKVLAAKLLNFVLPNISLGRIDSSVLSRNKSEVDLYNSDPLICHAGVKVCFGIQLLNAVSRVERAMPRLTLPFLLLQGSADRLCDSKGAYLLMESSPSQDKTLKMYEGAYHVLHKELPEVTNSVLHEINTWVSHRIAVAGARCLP
The experiment in a line: 2-AG Accumulation Assay in rat brain homogenate. Format: biochemical. Particulars: percent of vehicle; for activity at 1 µM: compound @1 µM, read-out: Rat Brain 2AG % VehCntrl (%) @1 µM; for activity at 10 µM: compound @10 µM, read-out: Rat Brain 2AG % VehCntrl (%) @10 µM.

The next assay deals with T3, mutant MGL (Homo sapiens, UniProt Q99685, L169S/L176S).
T3 construct: purified mutant MGL (mut-MGLL 11-313 L179S L186S)
T3 sequence (Q99685 1-303 L169S/L176S): T1 sequence (Q99685 1-303 L169S/L176S)
The experiment in a line: MGL ThermoFluor Assay - Mutant. Particulars: 0.07 mg/ml mutant MGL, 100 μM ANS, pH 7.0. Format: binding. On the procedure:
The ThermoFluor (TF) assay is a 384-well plate-based binding assay that measures thermal stability of proteins^1,2. The experiments were carried out using instruments available from Johnson & Johnson Pharmaceutical Research & Development, LLC. TF dye used in all experiments was 1,8-ANS (Invitrogen: A-47). Final TF assay conditions used for MGL studies were 0.07 mg/ml of mutant MGL, 100 μM ANS, 200 mM NaCl, 0.001% Tween-20 in 50 mM PIPES (pH=7.0).
Screening compound plates contained 100% DMSO compound solutions at a single concentration. […] Columns 12 and 24 were used as DMSO reference and contained no compound. […] Following compound dispension, protein and dye solutions were added to achieve the final assay volume of 3 μL.
Bar-coded assay plates were robotically loaded onto a thermostatically controlled PCR-type thermal block and then heated from 40 to 90° C. degrees at a ramp-rate of 1° C./min for all experiments. Fluorescence was measured by continuous illumination with UV light (Hamamatsu LC6), supplied via fiber optics and filtered through a band-pass filter (380-400 nm; >60D cutoff). Fluorescence emission of the entire 384-well plate was detected by measuring light intensity using a CCD camera (Sensys, Roper Scientific) filtered to detect 500±25 nm, resulting in simultaneous and independent readings of all 384 wells. A single image with 20-sec exposure time was collected at each temperature, and the sum of the pixel intensity in a given area of the assay plate was recorded vs temperature and fit to standard equations to yield the Tm^1. • 1.
The Kd values for certain compounds of Formula (I) were determined from a fit of the equation to the concentration-response plot of the fractional activity as a function of […]. For some experiments, quantitative NMR spectroscopy (qNMR) was used to measure concentration of the initial 100% DMSO compound solutions and, using the same fitting method, qKd values were determined.
Background: In DSF a fluorescence change marks the thermal transition of the protein.

Assay [2] concerns the target T4, wild type MGL (wt-MGLL 6H-11-313) (Homo sapiens, UniProt Q99685).
T4 construct: purified wild type MGL (wt-MGLL 6H-11-313); 6H (hexahistidine) (N)
T4 sequence (Q99685 1-303): T1 sequence (Q99685 1-303 L169S/L176S) with S169L, S176L
The experiment in a line: MGL Enzyme Activity Assay, purified wild type MGL, 4MU-B substrate. Format: biochemical. Particulars: wild type MGL 5 nM, 4MU-B 10 μM, 37° C.; read-out: MGL wild type inh IC50. On the procedure: All rate-based assays were performed in black 384-well polypropylene PCR microplates (Abgene) in a total volume of 30 μL. […] Final compound concentrations ranged from 17 to 0.0003 μM.
as §1

In the case of `CS(=O)(=O)c1cccc(-c2ccc(C(=O)N3CC(N4CC(NC(=O)c5nccs5)C4)C3)cc2)c1` [Cpd 18, N-(1′-{[3′-(Methylsulfonyl)biphenyl-4-yl]carbonyl}-1,3′-biazetidin-3-yl)-1,3-thiazole-2-carboxamide], the IC50 – broadly, the midpoint of a concentration-inhibition curve – in assay [1] turned out to be 59 nM. For the same compound, the activity at 1 µM on MGL was determined as 218%. Besides, on mutant MGL, the Kd (commonly a measure of binding affinity in units of concentration) came to 215 nM.

For `O=C(c1sc2cc(F)ccc2c1Cl)N1CC(N2CC(N3Cc4ccccc4C3=O)C2)C1` [Cpd 100, 2-{1′-[(3-Chloro-6-fluoro-1-benzothiophen-2-yl)carbonyl]-1,3′-biazetidin-3-yl}-2,3-dihydro-1H-isoindol-1-one], the half-inhibitory concentration (IC50) in assay [1] was below 5 nM. In addition, the activity at 1 µM on MGL turned out to be 208%. The same compound showed a Kd at mutant MGL of 47 nM.

As for `Cc1c(C(=O)N2CC(N3CC(NC(=O)c4nccs4)C3)C2)sc2cc(-c3ccccc3)ccc12` [Cpd 66, N-{1′-[(3-Methyl-6-phenyl-1-benzothiophen-2-yl)carbonyl]-1,3′-biazetidin-3-yl}-1,3-thiazole-2-carboxamide], the IC50 in assay [2] is below 5 nM. Moreover, the activity at 1 µM at MGL worked out at 399%.

In the case of `Cc1c(C(=O)N2CC(N3CC(NC(=O)c4nccs4)C3)C2)sc2cc(Br)ccc12` [Cpd 65, N-{1′-[(6-Bromo-3-methyl-1-benzothiophen-2-yl)carbonyl]-1,3′-biazetidin-3-yl}-1,3-thiazole-2-carboxamide], in assay [2], the IC50 was below 5 nM. Further, at MGL, the activity at 1 µM came out at 324%.

Consider `O=C(c1ccc2nc(-c3ccccc3)oc2c1)N1CC(N2CC(N3Cc4ccccc4C3=O)C2)C1` [Cpd 84, 2-{1′-[(2-Phenyl-1,3-benzoxazol-6-yl)carbonyl]-1,3′-biazetidin-3-yl}-2,3-dihydro-1H-isoindol-1-one], for which the IC50 in assay [1] worked out at 31 nM. For the same compound, at MGL, the activity at 1 µM was 152% and the activity at 10 µM stood at 435%. At mutant MGL, this compound gave a Kd of 60 nM.

On to `Cc1cn(-c2ccc(F)cc2)c2ccc(C(=O)N3CC(N4CC(NC(=O)c5nccs5)C4)C3)cc12` [Cpd 62, N-(1′-{[1-(4-Fluorophenyl)-3-methyl-1H-indol-5-yl]carbonyl}-1,3′-biazetidin-3-yl)-1,3-thiazole-2-carboxamide], for which the 50% inhibitory concentration (IC50) in assay [2] was found to be 15 nM. Further, the activity at 1 µM on MGL came to 334%.

Take `Cc1cc(-c2ccc(C(F)(F)F)cc2)ccc1C(=O)N1CC(N2CC(NC(=O)c3nccs3)C2)C1` [Cpd 63, N-(1′-{[3-Methyl-4′-(trifluoromethyl)biphenyl-4-yl]carbonyl}-1,3′-biazetidin-3-yl)-1,3-thiazole-2-carboxamide]: the half-inhibitory concentration (IC50) in assay [2] was found to be 29 nM. Moreover, the activity at 1 µM at MGL is 185%.

In the case of `O=C(NC1CN(C2CN(C(=O)c3ccc4c(ccn4-c4ccc(F)c(F)c4)c3)C2)C1)c1nccs1` [Cpd 57, N-(1′-{[1-(3,4-Difluorophenyl)-1H-indol-5-yl]carbonyl}-1,3′-biazetidin-3-yl)-1,3-thiazole-2-carboxamide], in assay [2], the IC50 was 7 nM. Also, the activity at 1 µM at MGL was determined as 424%.

As to `O=C(c1cc2ccc(Br)cc2s1)N1CC(N2CC(N3Cc4ccccc4C3=O)C2)C1` [Cpd 87, 2-{1′-[(6-Bromo-1-benzothiophen-2-yl)carbonyl]-1,3′-biazetidin-3-yl}-2,3-dihydro-1H-isoindol-1-one], the 50% inhibitory concentration (IC50) in assay [1] amounted to 50 nM. Moreover, the activity at 10 µM on MGL is 250%. This compound also displayed a Kd at mutant MGL of 40 nM.

For `O=C(NC1CN(C2CN(C(=O)c3ccc4c(ccn4-c4ccc(F)cc4)c3)C2)C1)c1cscn1` [Cpd 11, N-(1′-{[1-(4-Fluorophenyl)-1H-indol-5-yl]carbonyl}-1,3′-biazetidin-3-yl)-1,3-thiazole-4-carboxamide], the IC50 in assay [1] was determined as 15 nM. The activity at 10 µM at MGL came out at 220%. The compound also displayed a Kd on mutant MGL of 44 nM.

Turning to `O=C(NC1CN(C2CN(C(=O)c3ccc4c(ccn4S(=O)(=O)c4ccccc4)c3)C2)C1)c1nccs1` [Cpd 3, N-(1′-{[1-(Phenylsulfonyl)-1H-indol-5-yl]carbonyl}-1,3′-biazetidin-3-yl)-1,3-thiazole-2-carboxamide], in assay [1], the IC50 turned out to be 6 nM. For the same compound, the activity at 1 µM on MGL stood at 271%. Further, binding at mutant MGL was put at a Kd of 33.3 nM.

With `O=C(c1cc2ccc(C(F)(F)F)cc2s1)N1CC(N2CC(N3Cc4ccccc4C3=O)C2)C1` [Cpd 81, 2-(1′-{[6-(Trifluoromethyl)-1-benzothiophen-2-yl]carbonyl}-1,3′-biazetidin-3-yl)-2,3-dihydro-1H-isoindol-1-one], the IC50 in assay [1] worked out at 19 nM. Moreover, on MGL, the activity at 1 µM was 192% and the activity at 10 µM was 409%. The compound further gave an equilibrium dissociation constant (Kd) at mutant MGL of 16 nM.

Take `O=C(NC1CN(C2CN(C(=O)c3cc4c(C(F)(F)F)cccc4s3)C2)C1)c1nccs1` [Cpd 8, N-(1′-{[4-(Trifluoromethyl)-1-benzothiophen-2-yl]carbonyl}-1,3′-biazetidin-3-yl)-1,3-thiazole-2-carboxamide]: the IC50 in assay [1] worked out at 12 nM. The activity at 1 µM on MGL was 127%. This compound also showed a Kd on mutant MGL of 128 nM.

For the compound `O=C(c1ccc2c(ccn2-c2ccccc2)c1)N1CC(N2CC(N3Cc4ccccc4C3=O)C2)C1` [Cpd 85, 2-{1′-[(1-Phenyl-1H-indol-5-yl)carbonyl]-1,3′-biazetidin-3-yl}-2,3-dihydro-1H-isoindol-1-one], the IC50 in assay [1] was 36 nM. The activity at 10 µM on MGL stood at 693%. Binding on mutant MGL was characterised by a dissociation constant (Kd) of 25 nM.

Take `CS(=O)(=O)c1cccc(-c2ccc(C(=O)N3CC(N4CC(N5Cc6ccccc6C5=O)C4)C3)cc2)c1` [Cpd 80, 2-(1′-{[3′-(Methylsulfonyl)biphenyl-4-yl]carbonyl}-1,3′-biazetidin-3-yl)-2,3-dihydro-1H-isoindol-1-one]: in assay [1], the 50% inhibitory concentration (IC50) came to 19 nM. Besides, the activity at 1 µM at MGL was found to be 166%. Further, the Kd at mutant MGL worked out at 192 nM.

For the origin of these results see patent US8759333B2, “Di-azetidinyl diamide as monoacylglycerol lipase inhibitors” (Janssen Pharmaceutica, NV, priority 2010, dated 2014).
